Reference: patent US20240325544A1, “CATIONIC LIPID FOR COVALENT MODIFICATION OF PEPTIDES” (PharmalN Corporation, priority 2023, published 2024)
Like-named read-outs stand apart in the source and are kept apart here. Marks after values point to notes of the source that are not given here. Bridge positions count the residues as written; N and C are the ends. Square brackets hold non-standard residues; d marks the D form. Peptide text beside a SMILES is read from it. * marks the point of attachment. C18 diacid = O=C(O)CCCCCCCCCCCCCCCCC(=O)*; Palmitoyl = CCCCCCCCCCCCCCCC(=O)*; Dab = NCC[C@H](N)C(=O)O; Dap = NC[C@H](N)C(=O)O; AEEA = NCCOCCOCC(=O)O; GABA = NCCCC(=O)O

Legend:
Sprague Dawley rats = assay: Clinically observable adverse effects of cationic alkyl moieties after subcutaneous bolus in rats (Table 1); format: in vivo, rat; settings: tested at 3.0, 5.0 or 10 μmol/kg
Protocol: Drug administration and observation: Each rat received a subcutaneous injection of a cationic alkyl modifier (SEQ ID NO: 1-22; listed in Table 1 below) in a buffer of sterile water adjusted to a pH between 4.5-5, with an initial bolus dose of 5.0 μmol/kg and an injection volume of 1.0 mL/kg. The bolus dose level was adjusted based on observations, and animals were monitored closely for lethargy, ataxia, swelling, or discoloration during the first 4 hours post-injection and hourly thereafter. As used herein, “ataxia” means a clinical sign observed as poor muscle control that causes clumsy voluntary movements. It may cause difficulty with mobility, coordination, and eye movements. As used herein, “lethargy” means a clinical sign observed as inability or unwillingness to resume normal activity characterized by exploring and alertness. Lethargic rats are easily observed by displaying little to no activity and/or unwillingness to explore around, half closed eyes, and hunched posture. As used herein, “swelling” means a clinical sign observed as the enlargement or engorgement of body parts with blood or fluid and is associated with visible redness (discoloration). If no swelling occurred, dose level was increased to 10 μmol/kg; if swelling was present, bolus dose level was decreased to 3.0 μmol/kg. A wash-out period of 1 week was allowed between bolus doses, and animals were humanely euthanized through CO2 asphyxiation after final observation.

cGMP = assay: Plasma cGMP after SC bolus of natriuretic peptides in CD-1 mice (pharmacodynamics, Table 3); format: in vivo; settings: SC bolus 1.0 mg/kg (≤0.45 μmol/kg), baseline 10 +/−8 pmol/ml, n = 3-5
Protocol: (§1) The test articles were formulated or dissolved in sterile water for injection on the same day of administration. […] Blood samples were collected via retro-orbital bleed at 2- and 6-hours post-injection, with two bleedings per animal at two different timepoints. The samples were collected in K2EDTA tubes, processed by centrifugation (2000×g; 15 m 4 eC within 30 minutes after collection), and the resulting plasma samples were stored at −80° C. Biochemical analysis: The plasma concentration of the respective natriuretic peptide was analyzed using commercially available ELISA kits from Phoenix Pharmaceuticals (Burlingame, CA): ANP ELISA (cat #EKE-005-06), BNP ELISA (cat #EKE-011-03), and CNP ELISA (cat #EKE-012-03). […] Plasma cGMP was analyzed using a commercially available kit from Abcam (ab133052, Waltham, MA).

[1] = Plasma concentration of respective natriuretic peptide by ELISA after SC bolus in CD-1 mice (pharmacokinetics, Table 3); settings: male, CD-1, mouse, in vivo
Protocol: as §1

SMILES | Ataxia** in n = 3 (Sprague Dawley rats; ataxia is bolus dose limiting toxicity) | Swelling and/or Discoloration in n = 3 (Sprague Dawley rats; dose at which sign was seen) | Lethargy* in n = 3 (Sprague Dawley rats; lethargy is considered maximum tolerated bolus dose) | Plasma concentration of cGMP, 2 hr (cGMP) | Plasma concentration of cGMP, 6 hr (cGMP) | level at 2 h ([1]; mice, SC bolus 1.0 mg/kg (≤0.45 μmol/kg), 2 hr, ELISA, n = 3-5, read-out: Plasma concentration of respective Natriuretic Peptide, ANP, BNP, or CNP, 2 hr) | level at 6 h ([1]; mice, SC bolus 1.0 mg/kg (≤0.45 μmol/kg), 6 hr, ELISA, n = 3-5, read-out: Plasma concentration of respective Natriuretic Peptide, ANP, BNP, or CNP, 6 hr) | level at 2 h ([1]; sc, 1 mg/kg) | level at 6 h ([1]; sc, 1 mg/kg)
CCCCCCCCCCCCCCCC(=O)NCCOCCOCC(=O)NCCOCCOCC(=O)NCCOCCOCC(=O)N[C@@H](CCCCN)C(=O)N[C@@H](CCCCN)C(=O)O [SEQ ID NO: 7, CH3(CH2)14(C═O)-Aeea-Aeea-Aeea-KK] | >5 µmol/kg | ≥3 µmol/kg | ≥5 µmol/kg | – | – | – | – | – | –
CC[C@H](C)[C@@H]1NC(=O)[C@H](CCCNC(=N)N)NC(=O)[C@H](CC(=O)O)NC(=O)[C@H](CC(C)C)NC(=O)[C@H](CCCCN)NC(=O)[C@H](CC(C)C)NC(=O)CNC(=O)[C@H](Cc2ccccc2)NC(=O)[C@@H](NC(=O)CNC(=O)[C@H](CCCCN)NC(=O)[C@H](CO)NC(=O)[C@H](CC(C)C)NC(=O)CN)CSSC[C@@H](C(=O)O)NC(=O)CNC(=O)[C@H](CC(C)C)NC(=O)CNC(=O)[C@H](CO)NC(=O)[C@H](CCSC)NC(=O)[C@H](CO)NC(=O)CNC1=O [SEQ ID NO: 32, reference compound] | – | – | – | 8.7 pmol/mL | 9.5 pmol/mL | 2.17 ng/mL | 2.91 ng/mL | – | –
CC[C@H](C)[C@@H]1NC(=O)[C@H](CCCNC(=N)N)NC(=O)[C@H](CC(=O)O)NC(=O)[C@H](CC(C)C)NC(=O)[C@H](CCCCN)NC(=O)[C@H](CC(C)C)NC(=O)CNC(=O)[C@H](Cc2ccccc2)NC(=O)[C@@H](NC(=O)CNC(=O)[C@H](CCCCN)NC(=O)[C@H](CO)NC(=O)[C@H](CC(C)C)NC(=O)CNC(=O)[C@H](CCN)NC(=O)[C@H](CCN)NC(=O)COCCOCCNC(=O)COCCOCCNC(=O)COCCOCCNC(=O)CCCCCCCCCCCCCCCCC(=O)O)CSSC[C@@H](C(=O)O)NC(=O)CNC(=O)[C@H](CC(C)C)NC(=O)CNC(=O)[C@H](CO)NC(=O)[C@H](CCC(N)=O)NC(=O)[C@H](CO)NC(=O)CNC1=O [SEQ ID NO: 33] ({C18 diacid-AEEA-AEEA-AEEA}-[Dab][Dab]GLSKGCFGLKLDRIGSQSGLGC-OH; disulfide 8-24; C-terminus assumed) | – | – | – | 25.91** pmol/mL | 31.61* pmol/mL | – | – | 75.9 ng/mL | 68.2 ng/mL
CC[C@H](C)[C@@H]1NC(=O)[C@H](CCCNC(=N)N)NC(=O)[C@H](CC(=O)O)NC(=O)[C@H](CC(C)C)NC(=O)[C@H](CCCCN)NC(=O)[C@H](CC(C)C)NC(=O)CNC(=O)[C@H](Cc2ccccc2)NC(=O)[C@@H](NC(=O)CNC(=O)[C@H](CCCCN)NC(=O)[C@H](CO)NC(=O)[C@H](CC(C)C)NC(=O)CNC(=O)[C@H](CCN)NC(=O)[C@H](CCN)NC(=O)COCCOCCNC(=O)COCCOCCNC(=O)CCCCCCCCCCCCCCCCC(=O)O)CSSC[C@@H](C(=O)O)NC(=O)CNC(=O)[C@H](CC(C)C)NC(=O)CNC(=O)[C@H](CO)NC(=O)[C@H](CCC(N)=O)NC(=O)[C@H](CO)NC(=O)CNC1=O [SEQ ID NO: 34] ({C18 diacid-AEEA-AEEA}-[Dab][Dab]GLSKGCFGLKLDRIGSQSGLGC-OH; disulfide 8-24; C-terminus assumed) | – | – | – | 15.78* pmol/mL | 33.6 pmol/mL | – | – | 75.5 ng/mL | 41 ng/mL
CCCCCCCCCCCCCCCC(=O)NCCOCCOCC(=O)NCCOCCOCC(=O)N[C@@H](CN)C(=O)N[C@@H](CCN)C(=O)NCC(=O)N[C@@H](CC(C)C)C(=O)N[C@@H](CO)C(=O)N[C@@H](CCCCN)C(=O)NCC(=O)N[C@H]1CSSC[C@@H](C(=O)O)NC(=O)CNC(=O)[C@H](CC(C)C)NC(=O)CNC(=O)[C@H](CO)NC(=O)[C@H](CCC(N)=O)NC(=O)[C@H](CO)NC(=O)CNC(=O)[C@H]([C@@H](C)CC)NC(=O)[C@H](CCCNC(=N)N)NC(=O)[C@H](CC(=O)O)NC(=O)[C@H](CC(C)C)NC(=O)[C@H](CCCCN)NC(=O)[C@H](CC(C)C)NC(=O)CNC(=O)[C@H](Cc2ccccc2)NC1=O [SEQ ID NO: 35] ({Palmitoyl-AEEA-AEEA}-[Dap][Dab]GLSKGCFGLKLDRIGSQSGLGC-OH; disulfide 8-24; C-terminus assumed) | – | – | – | 65.28**** pmol/mL | 35.10** pmol/mL | – | – | 12.9 ng/mL | 4.13 ng/mL
CCCCCCCCCCCCCCCC(=O)NCCCC(=O)NCCCC(=O)NCCCC(=O)N[C@@H](CCN)C(=O)N[C@@H](CCN)C(=O)NCC(=O)N[C@@H](CC(C)C)C(=O)N[C@@H](CO)C(=O)N[C@@H](CCCCN)C(=O)NCC(=O)N[C@H]1CSSC[C@@H](C(=O)O)NC(=O)CNC(=O)[C@H](CC(C)C)NC(=O)CNC(=O)[C@H](CO)NC(=O)[C@H](CCC(N)=O)NC(=O)[C@H](CO)NC(=O)CNC(=O)[C@H]([C@@H](C)CC)NC(=O)[C@H](CCCNC(=N)N)NC(=O)[C@H](CC(=O)O)NC(=O)[C@H](CC(C)C)NC(=O)[C@H](CCCCN)NC(=O)[C@H](CC(C)C)NC(=O)CNC(=O)[C@H](Cc2ccccc2)NC1=O [SEQ ID NO: 36] ({Palmitoyl-GABA-GABA-GABA}-[Dab][Dab]GLSKGCFGLKLDRIGSQSGLGC-OH; disulfide 8-24; C-terminus assumed) | – | – | – | 54.61*** pmol/mL | 41.75** pmol/mL | – | – | 7.57 ng/mL | 2.57 ng/mL
CCCCCCCCCCCCCCCC(=O)NCCCC(=O)NCCCC(=O)N[C@@H](CCN)C(=O)N[C@@H](CCN)C(=O)NCC(=O)N[C@@H](CC(C)C)C(=O)N[C@@H](CO)C(=O)N[C@@H](CCCCN)C(=O)NCC(=O)N[C@H]1CSSC[C@@H](C(=O)O)NC(=O)CNC(=O)[C@H](CC(C)C)NC(=O)CNC(=O)[C@H](CO)NC(=O)[C@H](CCC(N)=O)NC(=O)[C@H](CO)NC(=O)CNC(=O)[C@H]([C@@H](C)CC)NC(=O)[C@H](CCCNC(=N)N)NC(=O)[C@H](CC(=O)O)NC(=O)[C@H](CC(C)C)NC(=O)[C@H](CCCCN)NC(=O)[C@H](CC(C)C)NC(=O)CNC(=O)[C@H](Cc2ccccc2)NC1=O [SEQ ID NO: 37] ({Palmitoyl-GABA-GABA}-[Dab][Dab]GLSKGCFGLKLDRIGSQSGLGC-OH; disulfide 8-24; C-terminus assumed) | – | – | – | 39.77* pmol/mL | 22.71** pmol/mL | – | – | 11.9 ng/mL | 5.77 ng/mL
CC[C@H](C)[C@@H]1NC(=O)[C@H](CCCNC(=N)N)NC(=O)[C@H](CC(=O)O)NC(=O)[C@H](CCSC)NC(=O)[C@H](CCCNC(=N)N)NC(=O)CNC(=O)CNC(=O)[C@H](Cc2ccccc2)NC(=O)[C@@H](NC(=O)[C@H](CO)NC(=O)[C@H](CO)NC(=O)[C@H](CCCNC(=N)N)NC(=O)[C@H](CCCNC(=N)N)NC(=O)[C@H](CC(C)C)NC(=O)[C@@H](N)CO)CSSC[C@@H](C(=O)N[C@@H](CC(N)=O)C(=O)N[C@@H](CO)C(=O)N[C@@H](Cc2ccccc2)C(=O)N[C@@H](CCCNC(=N)N)C(=O)N[C@@H](Cc2ccc(O)cc2)C(=O)O)NC(=O)CNC(=O)[C@H](CC(C)C)NC(=O)CNC(=O)[C@H](CO)NC(=O)[C@H](CCC(N)=O)NC(=O)[C@H](C)NC(=O)CNC1=O [SEQ ID NO: 44, reference compound] | – | – | – | 26.23 pmol/mL | 14.08 pmol/mL | – | – | – | –
